Several values for one entry are separate records, joined by “and”; a condition that tells them apart may be missing. Identical values can stand only once. Like-named read-outs stand apart in the source and are kept apart here.
Columns and labels:
[1] = test system: V79MZ cells; test: cells; conditions: for IC50: read-out: IC50 V79MZ (control vector)
Method: (§1) A Chinese hamster […] fibroblast cell line (V79MZ) and a clone expressing human CYP1B1 (V79MZh1B1), were grown at 37° C., 5%CO2 and at 90% saturated humidity, in DMEM (Dulbecco's modified eagles medium) high glucose type supplemented with 1 mM sodium pyruvate, 10% fetal calf serum, 100 U penicillin/ml and 100 μg streptomycin/ml. Neither cell line expresses endogenous P450s, although cytochrome P450 reductase is present in both cell lines. The parental and CYP1B1 expressing cell lines double in cell number every 10-12 h and were sub-cultured at 1:50 ratio (i.e. 1 ml of cells to 50 ml of fresh media) every 4-5 days. The cells were not allowed to reach confluency at any time, to ensure optimal cell physiological conditions and maximal cytochrome P450 activity. Cells were routinely used at 3rd-5th passage for all experiments.
(§2) Docetaxel was obtained from Rhone-Poulenc Rorer. Optimal growth conditions were established. The same conditions were used for both cell lines; V79MZ and V79MZh1B1 cells at 60-80% confluence were harvested and seeded at 0.5-1×10^3 cells per well in 96 well culture plates. […] Cells treated with solvent alone acted as a negative control.
(§3) Enzyme inhibition studies were undertaken by co-administration of docetaxel and the known P450 CYP1 inhibitor ANF (Sigma) at different concentration in the media. Stock solutions of ANF (1 mM, 10 mM and 100 mM) were dissolved in DMSO and added to the media to give final concentrations of 1 μM, 10 μM and 100 μM ANF (in each case the final concentration of DMSO in media was 0.1%). Following 24 h exposure to each drug (with or without inhibitor), the media were removed and replaced with fresh media without drug. In this study, cells were then grown for three doubling times (36 h) with the media changed at 24 hr. […] Media were removed from the wells and replaced with 200 μl of fresh media, followed by addition of 50 μl of MTT solution (50 mg/ml of MTT (Sigma) in sterile PBS), the cells were incubated at 37° C. in a humidified atmosphere with 5%CO2/95% air for 4 h. The MTT containing media was then removed and 200 μl of DMSO plus 25 μl of glycine buffer (0.1 M glycine/0.1 M NaCl pH 10.5) added to the cells in each well. This procedure overcomes any effect that cell density or culture medium may have on the absorption spectrum. The absorbance of the formazan produced by the viable cells was measured once for each well at 540 nm on a Labsystems EMS microplate reader (Life Sciences International). To calculate the cell viability cells treated with solvent alone were assigned a value of 100% absorbance indicating zero cytotoxicity, i.e. 100% viability. The cytotoxic profile of each drug was evaluated in triplicate 96 well plates. Each plate included several controls (media only, cells only and cells treated with solvent alone). The 96 well plate format allowed eight concentrations of the appropriate drug per plate, with eight replicates (i.e. eight separate wells) per drug concentration, i.e. 8 measurements of absorbance for each concentration of drug per plate. There were three triplicate plates per experiment resulting in a total of 24 measurements of absorbance per concentration of drug.

[2] = in vitro; conditions: Chinese hamster
Method: as §1, §2, §3

[3] = test system: V79MZh1B1 cells; test: in vitro; conditions: for cytotoxicity in CYP1B1 expressing V79MZh1B1 cells: 24 h exposure, ANF at 1, 10 and 100 μM
Method: as §1, §2, §3

[4] = molecular target: T1, CYP1B1 (Homo sapiens, UniProt Q16678); test: Inhibition of EROD activity mediated by cDNA expressed cytochrome 1B1; conditions: for Ki: Ki Values, Dixon re-plots of EROD activity, mean; for inhibition at 100 μM: human, pH 7.4
T1 sequence (Q16678 1-543): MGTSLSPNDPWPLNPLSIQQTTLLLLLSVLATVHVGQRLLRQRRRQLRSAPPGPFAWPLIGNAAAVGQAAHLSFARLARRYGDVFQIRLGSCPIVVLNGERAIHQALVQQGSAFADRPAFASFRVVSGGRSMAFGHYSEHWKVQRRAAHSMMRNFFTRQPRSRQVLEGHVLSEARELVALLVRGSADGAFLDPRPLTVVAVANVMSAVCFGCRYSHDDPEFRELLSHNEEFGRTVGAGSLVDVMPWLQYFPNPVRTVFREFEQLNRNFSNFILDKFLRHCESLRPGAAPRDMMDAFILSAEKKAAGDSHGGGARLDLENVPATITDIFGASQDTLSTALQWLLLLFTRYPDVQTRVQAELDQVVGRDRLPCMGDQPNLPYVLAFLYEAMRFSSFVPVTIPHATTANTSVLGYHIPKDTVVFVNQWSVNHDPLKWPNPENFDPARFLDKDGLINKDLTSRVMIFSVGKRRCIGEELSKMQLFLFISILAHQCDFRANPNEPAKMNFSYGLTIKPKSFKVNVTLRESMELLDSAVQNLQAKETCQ
Excerpt: Recent immunohistochemical analysis of P4501B1 protein in a variety of solid tumours identified tumour-specific enzyme expression (Murray et al, 1998). This provides a mechanism of resistance to currently used anticancer agents, as well as, an approach for targeted prodrug therapy. 7-ethoxyresorufin deethylase activity (EROD) was used to define interactions with cytochrome 1B1 (CYP1B1). 7-Ethoxyresorufin is a known substrate for P4501B1. […] For this purpose, inhibition constants (Ki) have been calculated using in vitro kinetics from CYP1B1-mediated EROD activity. EROD activity and assay has been described previously by various authors (Lubet et al., 1985, Arch. Biochem. Biophys. 238: pp 43-48; Gentest Corporation, 6 Henshaw St., Woburn, Mass. 01801 USA, data sheet given with CYP1B1, catalogue number P220). 7-Ethoxyresorufin is enzymatically deethylated to a product called resorufin. The appearance of resorufin was monitored by a fluorescence detector set at 550 nm and 582 nm (excitation and emission wavelengths). […] Incubations contained: phosphate buffer at pH 7.4, 7-ethoxyresorufin, CYP1B1 Supersomes from Gentest Co (catalogue number P220) and nicotine adenine dinucleotide phosphate (NADP) as cofactor.
The metabolism of anti-cancer drugs by CYP1B1 was studied using an inhibition of EROD assay. […] Ki values were determined by the Dixon's replots: see Table 2.

[5] = test system: CYP1B1 in kidney tumour samples; test: Kidney tumour assay, EROD metabolism with and without inhibitor; type: biochemical
Method: The effect of a CYP1B1 inhibitor was confirmed in an assay using kidney tumour samples. A buffer and NADP regenerating system was allowed to equilibrate at 37° C. and EROD (5 μM final concentration) was then added. This was followed by the addition of either P450 supersomes (control) or the appropriate tumour sample (1 mg). Supersomes were incubated for 15 minutes and tumour samples for 40 minutes.

[6] = molecular target: T2, CYP1A1 (Homo sapiens, UniProt P04798); test: Flutamide 2-hydroxylation and inhibition, CYP1A1 compared with CYP1B1; type: biochemical; conditions: 2-hydroxylation of flutamide; times higher than CYP1B1
T2 sequence (P04798 1-512): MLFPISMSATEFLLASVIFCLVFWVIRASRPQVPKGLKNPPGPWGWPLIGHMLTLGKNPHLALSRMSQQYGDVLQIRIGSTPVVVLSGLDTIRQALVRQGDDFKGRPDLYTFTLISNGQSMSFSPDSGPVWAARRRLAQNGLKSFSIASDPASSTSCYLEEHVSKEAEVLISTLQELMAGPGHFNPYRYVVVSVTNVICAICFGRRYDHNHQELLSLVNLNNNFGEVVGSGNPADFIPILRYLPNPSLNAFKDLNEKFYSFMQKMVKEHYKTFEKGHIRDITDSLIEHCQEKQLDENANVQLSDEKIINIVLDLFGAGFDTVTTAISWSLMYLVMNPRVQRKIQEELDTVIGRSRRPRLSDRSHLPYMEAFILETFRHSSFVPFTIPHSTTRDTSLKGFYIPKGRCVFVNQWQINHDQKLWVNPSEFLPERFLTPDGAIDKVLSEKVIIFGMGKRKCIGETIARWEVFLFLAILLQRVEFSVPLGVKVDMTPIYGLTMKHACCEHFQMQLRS

[7] = test system: CYP1B1, CYP1A1, and CYP1A2
[8] = test system: CYP1B1, CYP1A1, CYP1A2; test: in vitro; conditions: human
[9] = molecular target: T1, CYP1B1; test: Biotransformation studies with CYP1B1; conditions: metabolites produced by CYP1B1 incubation but not control incubations
[10] = fold less cytotoxic than paclitaxel; cited from earlier work
[11] = Cricetulus griseus, V79MZ, 24 h
[12] = 24 h drug exposure, MTT, concentration at which 50% of cells are viable

With `COc1cccc2c1C(=O)c1c(O)c3c(c(O)c1C2=O)C[C@@](O)(C(=O)CO)C[C@@H]3O[C@H]1C[C@H](N)[C@H](O)[C@H](C)O1` [Doxorubicin] the IC50 [1, 11] was 80 nM, the IC50 at 24 h [2] was 90 nM and the “difference in cytotoxicity between CYP1B1 expressing and non-expressing cells” value [3] was “no significant difference”. For the same molecule, the Ki [4] was 2600 nM and 2580 nM and the inhibition at 100 μM [4] was 53 to 99%.
For `N.N.O=C([O-])C1(C(=O)[O-])CCC1.[Pt+2]` [Carboplatin], the IC50 [1, 12] was 80000 nM, the “difference in cytotoxicity between CYP1B1 expressing and non-expressing cells” value ([3]; V79MZh1B1 compared with V79MZ, MTT) was “no significant difference” and the IC50 ([3]; read-out: IC50 V79MZhB1, 24 h drug exposure, MTT, CYP1B1 expressing cells) was 100 µM.
With `O=c1[nH]cc(F)c(=O)[nH]1` [5-Fluorouracil] the IC50 [1, 11] was 70000 nM, the IC50 at 24 h [2] was 80000 nM and the “difference in cytotoxicity between CYP1B1 expressing and non-expressing cells” value [3] was “no significant difference”.
In the case of `CC/C(=C(\c1ccccc1)c1ccc(OCCN(C)C)cc1)c1ccccc1` [Tamoxifen], the Ki [4] is reported as 5000 nM and 5020 nM.
For `CC(=O)O[C@@]12CO[C@@H]1C[C@H](O)[C@@]1(C)C(=O)[C@H](O)C3=C(C)[C@@H](OC(=O)[C@H](O)[C@@H](NC(=O)OC(C)(C)C)c4ccccc4)C[C@@](O)([C@@H](OC(=O)c4ccccc4)[C@H]21)C3(C)C` [Docetaxel], the IC50 [1, 11] was 22 nM, the IC50 at 24 h [2] was 100 nM and the “difference in cytotoxicity between CYP1B1 expressing and non-expressing cells” value [3] was “at least four-fold”. The “Inhibition Type” value [4] was “competitive”, the Ki [4] was 28000 nM and the inhibition at 100 μM [4] was 53 to 99%.
In the case of `COc1cccc2c1C(=O)c1c(O)c3c(c(O)c1C2=O)C[C@@](O)(C(C)=O)C[C@@H]3O[C@H]1C[C@H](N)[C@H](O)[C@H](C)O1` [Daunomycin], the Ki [4] is reported as 2100 nM and 2120 nM and the inhibition at 100 μM [4] is reported as 53 to 99%.
In the case of `O=c1cc(-c2ccccc2)oc2c1ccc1ccccc12` [α-naphthoflavone], the “cytotoxicity in CYP1B1 expressing V79MZh1B1 cells” value ([3]; MTT) is reported as “Neither cell line (parental or CYP1B1 expressing) showed cytotoxicity”, the “CYP1B1 activity in metabolising EROD” value ([5]; kidney tumour Sample 1, plus 10 nM ANF (252 without)) is reported as 145 fmol/min/mg protein and the “CYP1B1 activity in metabolising EROD” value ([5]; kidney tumour Sample 2, plus 10 nM ANF (993 without)) is reported as 470 fmol/min/mg protein. For the same molecule, the “CYP1B1 activity in metabolising EROD” value ([5]; kidney tumour Sample 3, plus 10 nM ANF (880 without)) was 570 fmol/min/mg protein.
For `CC(C)C(=O)Nc1ccc([N+](=O)[O-])c(C(F)(F)F)c1` [Flutamide], the “Inhibition Type” value [4] was “competitive”, the Ki [4] was 1000 nM and 990 nM and the inhibition at 100 μM [4] was 53 to 99%. The “Km for CYP1A1 relative to CYP1B1” value [6] was 5 times, the “inhibition type for CYP1B1, CYP1A1, and CYP1A2 activities” value [7] was “competitive” and the Ki [8] was 1 to 10.3 µM. The “biotransformation by CYP1B1” value [9] was “biotransformed by CYP1B1”.
For `CC(=O)N1CCN(c2ccc(OCC3COC(Cn4ccnc4)(c4ccc(Cl)cc4Cl)O3)cc2)CC1` (stereo not drawn) [Ketoconazole], the “Inhibition Type” value [4] was “non-competitive” and the Ki [4] was 300 nM and 270 nM.
For `C[C@]12CC[C@H]3[C@@H](CCC4=CC(=O)CC[C@@]43C)[C@@H]1CC[C@@H]2O` [Testosterone], the “Inhibition Type” value [4] was “competitive”.
With `C[C@]12CC[C@@H]3c4ccc(O)cc4CC[C@H]3[C@@H]1CC[C@@H]2O` [Estradiol] the “Inhibition Type” value [4] was “competitive”.
In the case of `O=P1(N(CCCl)CCCl)NCCCO1` (stereo not drawn) [Cyclophosphamide], the “cytotoxicity in parental V79MZ cells” value ([1]; 24 h exposure, MTT, ANF at 1, 10 and 100 μM) is reported as “No cytotoxicity”, the “cytotoxicity in CYP1B1 expressing V79MZh1B1 cells” value ([3]; MTT) is reported as “No cytotoxicity” and the “inhibition of CYP1B1 activity, initial screening, in words” value ([4]; initial screening, 1 μM ethoxyresorufin, 100 μM agent) is reported as “did not inhibit CYP1B1 activity”.
In the case of `CC(=O)O[C@H]1C(=O)[C@@]2(C)[C@H]([C@H](OC(=O)c3ccccc3)[C@]3(O)C[C@H](OC(=O)[C@H](O)[C@@H](NC(=O)c4ccccc4)c4ccccc4)C(C)=C1C3(C)C)[C@]1(OC(C)=O)CO[C@@H]1C[C@@H]2O` [Paclitaxel], the IC50 [1, 11] is reported as 35 nM, the “difference in cytotoxicity between CYP1B1 expressing and non-expressing cells” value [3] is reported as “no significant difference” and the Ki [4] is reported as 7850 nM. The inhibition at 100 μM [4] was 53 to 99% and the “biotransformation by CYP1B1” value [9] was “biotransformed by CYP1B1”.
`N.N.[Cl][Pt][Cl]` [Cisplatin] showed an IC50 [1, 12] of 4400 nM.
For `CC(=O)O[C@H]1C(=O)[C@@]2(C)[C@H]([C@H](OC(=O)c3ccccc3)[C@]3(O)C[C@H](OC(=O)[C@H](O)[C@@H](NC(=O)c4ccccc4)c4ccccc4)C(C)=C1C3(C)C)[C@]1(OC(C)=O)CO[C@@H]1[C@@H](O)[C@@H]2O` [6-hydroxytaxol], the “cytotoxicity relative to parent compound paclitaxel” value [10] is given as 30 fold.

From patent US20030162727A1, “Use of cyp1b1inhibitors for treating cancer” (priority 2000, published 2003)
